Data as given in patent US20260062412A1, “NITROGEN-CONTAINING HETEROCYCLIC COMPOUND HAVING MYT1 INHIBITORY ACTIVITY” (CHUGAI SEIYAKU KABUSHIKI KAISHA, priority 2023, published 2026).
Counter-ions that a name gives are not always drawn.

Key:
LU65 = experiment: Cytotoxicity test with pemetrexed upon addition of each example compound (CellTiter-Glo); type: cell-based, human; settings: combination with pemetrexed, LU65 cells, 7 days; maximum value, at the MYT1 inhibitor and pemetrexed concentrations
Protocol: LU65 (received from human tissue bank (JCRB Cell Bank)) was used in the evaluation of the present invention. LU65 is a lung cancer cell line having a truncated deletion mutation of S82* in RB1 gene (see Nature. 2019 May; 569(7757): 503-508. (Non Patent Literature 22)), in which the function of RB1 is decreased. The cell culture was carried out using RPMI-1640 (manufactured by SIGMA) containing 10% FBS (manufactured by SIGMA).
Each pemetrexed (manufactured by Tokyo Kasei Kogyo Co., Ltd.) and each example compound of each concentration were diluted using a DMSO solution, and 0.04 μL of each of series of dilution and DMSO was added to each well of cell culture plate using Echo 555 Liquid Handler (manufactured by Beckman Coulter Inc.). 1000 LU65 cells ([…]) were added to each well, which was cultured at 37° C. in a 5% CO2 incubator for 7 days. Intracellular ATP level which is a cell survival marker was measured and used in the monitoring of cell number. After culturing, 20 μL of CellTiter-Glo (registered trademark) 2.0 (manufactured by Promega) was added to each well, and the emission intensity was measured using Multimode Plate Reader En Vision (registered trademark) Xcite (manufactured by PerkinElmer). The cell survival rate under each condition was calculated by setting the value obtained by subtracting the luminescence of the cell unseeded well from the luminescence of the DMSO-added well as 100%, and calculating the proportion of a value obtained by subtracting the luminescence of the cell unseeded well from the luminescence detected at each well.
In addition, the cytotoxic activity under each condition was calculated by subtracting the survival rate in a combination of pemetrexed of each treatment concentration and each example compound of each treatment concentration, from 100%.

MYT1 protein [1] = target: T1, MYT1 protein (Homo sapiens (Human), UniProt Q99640); experiment: Test for binding to ATP binding site of MYT1 (Kinase Tracer 178 / Eu-Anti-GST antibody TR-FRET); settings: ATP binding site of MYT1, 30 minutes at room temperature
MYT1 protein [2] = target: T1, MYT1 protein; experiment: MYT1 kinase activity inhibition test (ELISA, phosphorylation of Y15 of CDK1); type: biochemical; settings: phosphorylation level of Y15 of CDK1 protein caused by MYT1 protein, 60 minutes
Protocol: The MYT1 kinase activity inhibitory capacity of each compound was evaluated by evaluating the phosphorylation level of Y15 of CDK1 protein caused by MYT1 protein, by ELISA. The kit of CycLex Weel Kinase Assay/Inhibitor Screening Kit Ver. 3 (manufactured by MBL, CY-1172V3) was used. Using Kinase Buffer, 10 μL of 5 nM MYT1 protein (manufactured by Carna Biosciences, Inc.) was prepared. In addition, 30 μL of 83.3 μM of ATP was prepared using Kinase Buffer. In addition, 10 μL of each compound was diluted to each concentration using Kinase Buffer. 30 μL of ATP was added to the plate of the kit, and thereafter, 10 μL of each compound was added thereto. Further, 10 μL of the diluted MYT1 protein solution was added thereto, and then the mixture was mixed, which was allowed to stand at room temperature for 60 minutes. The reaction solution was removed from each well, and each well was washed using Wash Buffer. After Wash Buffer was removed, 100 μL of HRP conjugated Anti-phospho-tyrosine antibody was added to each well, which was allowed to stand at room temperature for 60 minutes. Thereafter, the reaction solution was removed from each well, and each well was washed using Wash Buffer. After Wash Buffer was removed, 100 μL of Substrate Reagent was added to each well, which was allowed to stand at room temperature for 8 minutes. Thereafter, 100 μL of Stop Solution (1 N sulfuric acid) was added to each well according to the manual. Absorbances at 450 nm and 590 nm were measured using Envision (manufactured by PerkinElmer). The phosphorylation level of CDK1 protein was evaluated for each well by subtracting the absorbance at 590 nm from the absorbance at 450 nm. The inhibition rate of each compound added at each concentration was calculated by setting the signal when the compound was not added as 100% and the signal when MYT1 protein was not added as 0%, and the calculation results of IC50 were shown in Table 4.

T1 sequence (Q99640 whole entry): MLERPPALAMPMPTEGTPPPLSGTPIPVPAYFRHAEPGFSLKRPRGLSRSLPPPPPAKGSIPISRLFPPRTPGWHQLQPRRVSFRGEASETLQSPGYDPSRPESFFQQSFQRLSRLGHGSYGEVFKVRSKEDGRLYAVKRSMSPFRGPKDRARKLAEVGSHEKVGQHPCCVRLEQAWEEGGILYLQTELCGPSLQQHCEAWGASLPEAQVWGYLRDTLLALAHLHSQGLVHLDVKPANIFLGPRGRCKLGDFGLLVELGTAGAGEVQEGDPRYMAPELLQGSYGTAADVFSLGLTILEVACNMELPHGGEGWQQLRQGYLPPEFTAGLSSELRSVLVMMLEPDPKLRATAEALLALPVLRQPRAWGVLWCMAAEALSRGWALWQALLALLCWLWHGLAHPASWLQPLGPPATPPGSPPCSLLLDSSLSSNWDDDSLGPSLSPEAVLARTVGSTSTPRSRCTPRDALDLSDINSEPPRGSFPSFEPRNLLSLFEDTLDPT

In the case of `Nc1c(-c2c(F)ccc3[nH]ncc23)c2cc(C3CC3)c3ncccc3c2[nH]c1=O` (racemic) [Compound C156, 3-Amino-6-cyclopropyl-4-(5-fluoro-1H-indazol-4-yl)-1H-1,7-phenanthrolin-2-one], the “Bliss Score (Max)” value (LU65) is reported as 51%, the “HSA Score (MAX)” value (LU65) is reported as 59% and the IC50 (MYT1 protein [1]) is reported as 2.1 nM. The IC50 (MYT1 protein [2]) was 6.2 nM.
With `Nc1c(-c2ccc(Cl)c3[nH]ncc23)c2cc(Cl)ccc2[nH]c1=O` [Compound A59, 3-Amino-6-chloro-4-(7-chloro-1H-indazol-4-yl)-1H-quinolin-2-one] the “Bliss Score (Max)” value (LU65) was 55%, the “HSA Score (MAX)” value (LU65) was 58% and the IC50 (MYT1 protein [1]) was 5.8 nM. For the same compound, the IC50 (MYT1 protein [2]) was 0.6 nM.
`Nc1c(-c2cccc(O)c2)c2cc(C3CC3)c3ccccc3c2[nH]c1=O` [Compound B3, 3-Amino-6-cyclopropyl-4-(3-hydroxyphenyl)-1H-benzo[h]quinolin-2-one] was tested, and the “Bliss Score (Max)” value (LU65) was 78%, the “HSA Score (MAX)” value (LU65) was 77% and the IC50 (MYT1 protein [1]) was 7.3 nM. It also gave an IC50 (MYT1 protein [2]) of 0.52 nM.
In the case of `Nc1c(-c2ccc(F)c3[nH]ncc23)c2cc(C3CC3)c3ccccc3c2[nH]c1=O` [Compound B22, 3-Amino-6-cyclopropyl-4-(7-fluoro-1H-indazol-4-yl)-1H-benzo[h]quinolin-2-one], the “Bliss Score (Max)” value (LU65) is reported as 56%, the “HSA Score (MAX)” value (LU65) is reported as 64% and the IC50 (MYT1 protein [1]) is reported as 11 nM. The IC50 (MYT1 protein [2]) was 0.25 nM.
With `CCc1cc2c(-c3ccc(F)c4[nH]ncc34)c(N)c(=O)[nH]c2c2ccccc12` [Compound B23, 3-Amino-6-ethyl-4-(7-fluoro-1H-indazol-4-yl)-1H-benzo[h]quinolin-2-one] the “Bliss Score (Max)” value (LU65) was 58%, the “HSA Score (MAX)” value (LU65) was 63% and the IC50 (MYT1 protein [1]) was 8.3 nM. The IC50 (MYT1 protein [2]) was 0.26 nM.
`Nc1c(-c2ccc(F)c3[nH]ncc23)c2cc(C3CCC3)c3ccccc3c2[nH]c1=O` [Compound B24, 3-Amino-6-cyclobutyl-4-(7-fluoro-1H-indazol-4-yl)-1H-benzo[h]quinolin-2-one] was tested, and the “Bliss Score (Max)” value (LU65) was 52%, the “HSA Score (MAX)” value (LU65) was 60% and the IC50 (MYT1 protein [1]) was 16 nM. It also gave an IC50 (MYT1 protein [2]) of 0.62 nM.
`CP(C)(=O)c1cc2c(-c3ccc(F)c4[nH]ncc34)c(N)c(=O)[nH]c2c2ccccc12` [Compound B31, 3-Amino-6-dimethylphosphoryl-4-(7-fluoro-1H-indazol-4-yl)-1H-benzo[h]quinolin-2-one] showed an IC50 (MYT1 protein [1]) of 19 nM and an IC50 (MYT1 protein [2]) of 0.32 nM.
`Nc1c(-c2ccc(F)c3[nH]ncc23)c2ccc3ccccc3c2[nH]c1=O` [Compound B32, 3-Amino-4-(7-fluoro-1H-indazol-4-yl)-1H-benzo[h]quinolin-2-one] was tested, and the “Bliss Score (Max)” value (LU65) was 52%, the “HSA Score (MAX)” value (LU65) was 63% and the IC50 (MYT1 protein [1]) was 3 nM. The IC50 (MYT1 protein [2]) was 0.26 nM.
For `Nc1c(-c2ccc(F)c3[nH]ncc23)c2cc(Cl)c3ccccc3c2[nH]c1=O` [Compound B34, 3-Amino-6-chloro-4-(7-fluoro-1H-indazol-4-yl)-1H-benzo[h]quinolin-2-one], the IC50 (MYT1 protein [1]) was 33 nM and the IC50 (MYT1 protein [2]) was 0.86 nM.
`Nc1c(-c2ccc(F)c3[nH]ncc23)c2cc(F)c3ccccc3c2[nH]c1=O` [Compound B35, 3-Amino-6-fluoro-4-(7-fluoro-1H-indazol-4-yl)-1H-benzo[h]quinolin-2-one] was tested, and the “Bliss Score (Max)” value (LU65) was 61%, the “HSA Score (MAX)” value (LU65) was 70% and the IC50 (MYT1 protein [1]) was 3.7 nM. For the same compound, the IC50 (MYT1 protein [2]) was 0.44 nM.
`Nc1c(-c2ccc(Cl)c3[nH]ncc23)c2cc(C3CC3)c3ccccc3c2[nH]c1=O` [Compound B37, 3-Amino-4-(7-chloro-1H-indazol-4-yl)-6-cyclopropyl-1H-benzo[h]quinolin-2-one] was tested, and the “Bliss Score (Max)” value (LU65) was 31%, the “HSA Score (MAX)” value (LU65) was 34% and the IC50 (MYT1 protein [1]) was 6 nM. It also gave an IC50 (MYT1 protein [2]) of 0.75 nM.
With `Nc1c(-c2cccc3[nH]ncc23)c2ccc3ccccc3c2[nH]c1=O` [Compound B46, 3-Amino-4-(1H-indazol-4-yl)-1H-benzo[h]quinolin-2-one] the “Bliss Score (Max)” value (LU65) was 52%, the “HSA Score (MAX)” value (LU65) was 65% and the IC50 (MYT1 protein [1]) was 6.3 nM. It also gave an IC50 (MYT1 protein [2]) of 6.4 nM.
In the case of `Nc1c(-c2cccc3[nH]ncc23)c2cc(C3CC3)c3ccc(F)cc3c2[nH]c1=O` [Compound B47, 3-Amino-6-cyclopropyl-9-fluoro-4-(1H-indazol-4-yl)-1H-benzo[h]quinolin-2-one], the “Bliss Score (Max)” value (LU65) is reported as 54%, the “HSA Score (MAX)” value (LU65) is reported as 62% and the IC50 (MYT1 protein [1]) is reported as 10 nM. For the same compound, the IC50 (MYT1 protein [2]) was 1.1 nM.
In the case of `Cl.Nc1c(-c2cccc3[nH]ncc23)c2cc(C3CC3)c3cc(F)ccc3c2[nH]c1=O` [Compound B48, 3-Amino-6-cyclopropyl-8-fluoro-4-(1H-indazol-4-yl)-1H-benzo[h]quinolin-2-one; hydrochloride], the “Bliss Score (Max)” value (LU65) is reported as 66%, the “HSA Score (MAX)” value (LU65) is reported as 70% and the IC50 (MYT1 protein [1]) is reported as 18 nM. For the same compound, the IC50 (MYT1 protein [2]) was 2.5 nM.
With `Nc1c(-c2cccc3[nH]ncc23)c2cc(C3CC3)c3ccccc3c2[nH]c1=O` [Compound B49, 3-amino-6-cyclopropyl-4-(1H-indazol-4-yl)-1H-benzo[h]quinolin-2-one] the “Bliss Score (Max)” value (LU65) was 86%, the “HSA Score (MAX)” value (LU65) was 84% and the IC50 (MYT1 protein [1]) was 6.2 nM. It also gave an IC50 (MYT1 protein [2]) of 6.4 nM.
For `Nc1c(-c2cccc(F)c2)c2ccc3ccccc3c2[nH]c1=O` [Compound B50, 3-Amino-4-(3-fluorophenyl)-1H-benzo[h]quinolin-2-one; hydrochloride], the IC50 (MYT1 protein [1]) was 750 nM and the IC50 (MYT1 protein [2]) was 210 nM.
For `Nc1c(-c2ccc(F)c3[nH]ncc23)c2cc(Br)c3ncccc3c2[nH]c1=O` [Compound C1, 3-amino-6-bromo-4-(7-fluoro-1H-indazol-4-yl)-1H-1,7-phenanthrolin-2-one], the “Bliss Score (Max)” value (LU65) was 59%, the “HSA Score (MAX)” value (LU65) was 71% and the IC50 (MYT1 protein [1]) was 2 nM. For the same compound, the IC50 (MYT1 protein [2]) was < 0.17 nM.
`COc1cc2c(-c3ccc(F)c4[nH]ncc34)c(N)c(=O)[nH]c2c2cccnc12` [Compound C4, 3-Amino-4-(7-fluoro-1H-indazol-4-yl)-6-methoxy-1H-1,7-phenanthrolin-2-one] was tested, and the “Bliss Score (Max)” value (LU65) was 61%, the “HSA Score (MAX)” value (LU65) was 62% and the IC50 (MYT1 protein [1]) was 1.3 nM. It also gave an IC50 (MYT1 protein [2]) of 0.15 nM.
For `CCOc1cc2c(-c3ccc(F)c4[nH]ncc34)c(N)c(=O)[nH]c2c2cccnc12` [Compound C8, 3-Amino-6-ethoxy-4-(7-fluoro-1H-indazol-4-yl)-1H-1,7-phenanthrolin-2-one], the “Bliss Score (Max)” value (LU65) was 68%, the “HSA Score (MAX)” value (LU65) was 78% and the IC50 (MYT1 protein [1]) was 1.6 nM. For the same compound, the IC50 (MYT1 protein [2]) was 0.3 nM.
`CC(C)Oc1cc2c(-c3ccc(F)c4[nH]ncc34)c(N)c(=O)[nH]c2c2cccnc12` [Compound C13, 3-Amino-4-(7-fluoro-1H-indazol-4-yl)-6-propan-2-yloxy-1H-1,7-phenanthrolin-2-one] was tested, and the “Bliss Score (Max)” value (LU65) was 62%, the “HSA Score (MAX)” value (LU65) was 66% and the IC50 (MYT1 protein [1]) was 1.4 nM. For the same compound, the IC50 (MYT1 protein [2]) was 0.15 nM.
For `Nc1c(-c2ccc(F)c3[nH]ncc23)c2cc(F)c3ncccc3c2[nH]c1=O` [Compound C64, 3-Amino-6-fluoro-4-(7-fluoro-1H-indazol-4-yl)-1H-1,7-phenanthrolin-2-one], the “Bliss Score (Max)” value (LU65) was 45%, the “HSA Score (MAX)” value (LU65) was 54% and the IC50 (MYT1 protein [1]) was 7.4 nM. It also gave an IC50 (MYT1 protein [2]) of 0.2 nM.
In the case of `Nc1c(-c2cccc3[nH]ncc23)c2cc(Cl)c3ncccc3c2[nH]c1=O` [Compound C79, 3-Amino-6-chloro-4-(1H-indazol-4-yl)-1H-1,7-phenanthrolin-2-one], the IC50 (MYT1 protein [1]) is reported as 11 nM and the IC50 (MYT1 protein [2]) is reported as 0.3 nM.
For `Nc1c(-c2cccc(O)c2)c2ccc3ncccc3c2[nH]c1=O` [Compound C184, 3-Amino-4-(3-hydroxyphenyl)-1H-1,7-phenanthrolin-2-one; hydrobromide], the IC50 (MYT1 protein [1]) was 10 nM and the IC50 (MYT1 protein [2]) was < 4.6 nM.
`Nc1c(-c2cccc3[nH]ncc23)c2ccc3ncccc3c2[nH]c1=O` [Compound C186, 3-Amino-4-(1H-indazol-4-yl)-1H-1,7-phenanthrolin-2-one] was tested, and the IC50 (MYT1 protein [1]) was 6.8 nM and the IC50 (MYT1 protein [2]) was 3.9 nM.
